The values that follow come from patent publication US8969325B2, “TRPV1 antagonists” (AbbVie Inc., priority 2011, dated 2015).

Test [1] has as its target T1, human TRPV1 (Homo sapiens (Human), UniProt Q8NER1). The test is described as follows: Capsaicin Activation Assay (intracellular Ca2+, FLIPR). The following applies: recombinant HEK293 cells expressing hTRPV1, 50 nM capsaicin. Format: cell-based. An outline of the steps:
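Ca2+ fluorescence was recorded by FLIPR every 1 to 5 seconds in HEK293 cells, clonally selected for stable human TRPV1 expression and plated one day ahead. Test compounds came as serial dilutions of 10 mM DMSO stocks.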

Test [2] has as its target T1, human TRPV1. As to the kind of experiment: Acid Activation Assay (pH 5.0, intracellular Ca2+, FLIPR). Format: cell-based. The following applies: percentage of the maximal pH 5.0-induced response remaining; recombinant HEK293 hTRPV1 cells; maximum concentration tested 37.5 μM. An outline of the steps:
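Readout: peak [Ca2+]i fluorescence over baseline on FLIPR, expressed as percentage remaining of the maximal pH 5.0-evoked signal. Stable hTRPV1-HEK293 cells with Calcium-4 dye received compound (12 half-log concentrations, maximum 37.5 μM) 3 min before acidic pH 5.0 buffer.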

T1 sequence (Q8NER1 whole entry): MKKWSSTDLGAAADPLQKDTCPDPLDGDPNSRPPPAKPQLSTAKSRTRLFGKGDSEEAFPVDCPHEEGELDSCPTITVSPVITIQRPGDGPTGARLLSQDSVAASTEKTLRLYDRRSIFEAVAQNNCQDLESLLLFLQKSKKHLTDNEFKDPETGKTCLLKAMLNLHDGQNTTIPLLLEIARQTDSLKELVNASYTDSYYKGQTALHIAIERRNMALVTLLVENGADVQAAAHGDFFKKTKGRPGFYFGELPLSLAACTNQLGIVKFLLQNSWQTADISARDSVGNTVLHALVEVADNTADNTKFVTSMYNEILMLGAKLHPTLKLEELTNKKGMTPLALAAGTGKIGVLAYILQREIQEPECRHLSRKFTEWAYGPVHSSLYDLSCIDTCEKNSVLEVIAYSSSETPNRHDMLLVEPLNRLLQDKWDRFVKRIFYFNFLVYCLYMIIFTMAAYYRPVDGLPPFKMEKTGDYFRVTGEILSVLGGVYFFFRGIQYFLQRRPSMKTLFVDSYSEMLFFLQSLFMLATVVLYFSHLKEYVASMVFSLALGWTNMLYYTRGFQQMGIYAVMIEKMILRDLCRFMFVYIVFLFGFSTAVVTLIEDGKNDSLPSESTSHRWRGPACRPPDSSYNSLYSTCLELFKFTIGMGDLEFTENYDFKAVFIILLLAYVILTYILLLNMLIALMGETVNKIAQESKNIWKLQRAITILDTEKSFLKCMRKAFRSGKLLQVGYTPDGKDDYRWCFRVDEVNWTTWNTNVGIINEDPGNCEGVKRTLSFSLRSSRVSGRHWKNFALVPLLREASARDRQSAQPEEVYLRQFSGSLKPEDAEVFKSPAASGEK

Broadly, the IC50 is the concentration needed to halve the response being measured. As for `C[C@@]1(C(F)F)C[C@@H](NC(=O)Nc2ccc3c(c2)NC(=O)CO3)c2ccccc2O1` [Example 130, 1-[(2S,4R)-2-(difluoromethyl)-2-methyl-3,4-dihydro-2H-chromen-4-yl]-3-(3-oxo-3,4-dihydro-2H-1,4-benzoxazin-6-yl)urea], the half-inhibitory concentration (IC50) on human TRPV1 [1] was found to be 1000 nM. The “human TRPV1 H^+ (max % remain)” value on human TRPV1 [2] is 98%.

For `C[C@]1(C(F)F)C[C@@H](NC(=O)Nc2ccc3c(c2)NC(=O)CO3)c2ccccc2O1` [Example 131, 1-[(2R,4R)-2-(difluoromethyl)-2-methyl-3,4-dihydro-2H-chromen-4-yl]-3-(3-oxo-3,4-dihydro-2H-1,4-benzoxazin-6-yl)urea], the IC50 on human TRPV1 [1] was found to be 360 nM. Besides, on human TRPV1 [2], the “human TRPV1 H^+ (max % remain)” value turned out to be 89%.

Regarding `O=C1COc2ccc(NC(=O)NCC3CCc4ccc(C(F)(F)F)cc4O3)cc2N1` (centres unmarked) [Example 132, 1-(3-oxo-3,4-dihydro-2H-1,4-benzoxazin-6-yl)-3-{[7-(trifluoromethyl)-3,4-dihydro-2H-chromen-2-yl]methyl}urea], the half-maximal inhibitory concentration (IC50) at human TRPV1 [1] came out at 31000 nM. Moreover, on human TRPV1 [2], the “human TRPV1 H^+ (max % remain)” value is on record as 98%.

As for `O=C1COc2ccc(NC(=O)NCC3COc4ccc(F)cc4C3)cc2N1` (centres unmarked) [Example 133, 1-[(6-fluoro-3,4-dihydro-2H-chromen-3-yl)methyl]-3-(3-oxo-3,4-dihydro-2H-1,4-benzoxazin-6-yl)urea], the concentration for half-maximal inhibition (IC50) on human TRPV1 [1] was 2500 nM. Besides, the “human TRPV1 H^+ (max % remain)” value on human TRPV1 [2] is 100%.

With `C[C@H]1Oc2c(NC(=O)N[C@@H]3CC(CF)(CF)Oc4cc(Cl)ccc43)cccc2NC1=O` [Example 134, 1-[(4R)-7-chloro-2,2-bis(fluoromethyl)-3,4-dihydro-2H-chromen-4-yl]-3-[(2R)-2-methyl-3-oxo-3,4-dihydro-2H-1,4-benzoxazin-8-yl]urea], the IC50 on human TRPV1 [1] was 8 nM. Moreover, the “human TRPV1 H^+ (max % remain)” value on human TRPV1 [2] came to 0%.

Consider `CN1C(=O)NCc2c(NC(=O)N[C@@H]3CC(C)(C)Oc4c(F)cccc43)cccc21` [Example 135, 1-[(4R)-8-fluoro-2,2-dimethyl-3,4-dihydro-2H-chromen-4-yl]-3-(1-methyl-2-oxo-1,2,3,4-tetrahydroquinazolin-5-yl)urea], for which the IC50 at human TRPV1 [1] was 31 nM. In addition, the “human TRPV1 H^+ (max % remain)” value on human TRPV1 [2] is given as 32%.

As to `CN1C(=O)NCc2c(NC(=O)N[C@@H]3CC(C)(C(F)F)Oc4cc(Cl)ccc43)cccc21` (stereo partly drawn) [Example 136, 1-[(4R)-7-chloro-2-(difluoromethyl)-2-methyl-3,4-dihydro-2H-chromen-4-yl]-3-(1-methyl-2-oxo-1,2,3,4-tetrahydroquinazolin-5-yl)urea], the IC50 at human TRPV1 [1] worked out at 23 nM. For the same compound, at human TRPV1 [2], the “human TRPV1 H^+ (max % remain)” value is listed as 26%.

`CN1C(=O)NCc2c(NC(=O)N[C@@H]3CC(C)(C)Oc4cc(OC(F)(F)F)ccc43)cccc21` [Example 137, 1-[(4R)-2,2-dimethyl-7-(trifluoromethoxy)-3,4-dihydro-2H-chromen-4-yl]-3-(1-methyl-2-oxo-1,2,3,4-tetrahydroquinazolin-5-yl)urea]: on human TRPV1 [1], the IC50 came to 38 nM. At human TRPV1 [2], the “human TRPV1 H^+ (max % remain)” value is listed as 17%.

In the case of `CCC1(CC)C[C@@H](NC(=O)Nc2cccc3c2CNC(=O)N3C)c2cccc(F)c2O1` [Example 139, 1-[(4R)-2,2-diethyl-8-fluoro-3,4-dihydro-2H-chromen-4-yl]-3-(1-methyl-2-oxo-1,2,3,4-tetrahydroquinazolin-5-yl)urea], on human TRPV1 [1], the IC50 is 12 nM. For the same compound, the “human TRPV1 H^+ (max % remain)” value on human TRPV1 [2] is 27%.

Regarding `CCC1(CC)C[C@@H](NC(=O)Nc2cccc3c2CNC(=O)N3C)c2ccccc2O1` [Example 140, 1-[(4R)-2,2-diethyl-3,4-dihydro-2H-chromen-4-yl]-3-(1-methyl-2-oxo-1,2,3,4-tetrahydroquinazolin-5-yl)urea], on human TRPV1 [1], the IC50 was 11 nM. Further, the “human TRPV1 H^+ (max % remain)” value on human TRPV1 [2] turned out to be 27%.

On to `CN1C(=O)NCc2c(NC(=O)N[C@@H]3CCc4cc(C(C)(C)C)ccc43)cccc21` [Example 141, 1-[(1R)-5-tert-butyl-2,3-dihydro-1H-inden-1-yl]-3-(1-methyl-2-oxo-1,2,3,4-tetrahydroquinazolin-5-yl)urea], for which, on human TRPV1 [1], the IC50 came to 28 nM. At human TRPV1 [2], the “human TRPV1 H^+ (max % remain)” value worked out at 8%.

`CN1C(=O)NCc2c(NC(=O)N[C@@H]3CCOc4c3cccc4C(C)(C)C)cccc21` [Example 142, 1-[(4R)-8-tert-butyl-3,4-dihydro-2H-chromen-4-yl]-3-(1-methyl-2-oxo-1,2,3,4-tetrahydroquinazolin-5-yl)urea]: the IC50 at human TRPV1 [1] stood at 110 nM. Further, the “human TRPV1 H^+ (max % remain)” value at human TRPV1 [2] is on record as 18%.

Regarding `CCC1(CC)C[C@@H](NC(=O)Nc2cccc3c2CNC(=O)N3C)c2ccc(C(F)(F)F)cc2O1` [Example 144, 1-[(4R)-2,2-diethyl-7-(trifluoromethyl)-3,4-dihydro-2H-chromen-4-yl]-3-(1-methyl-2-oxo-1,2,3,4-tetrahydroquinazolin-5-yl)urea], the IC50 on human TRPV1 [1] is 130 nM. Besides, the “human TRPV1 H^+ (max % remain)” value at human TRPV1 [2] was determined as 5%.

Turning to `CN1C(=O)NCc2c(NC(=O)N[C@@H]3CC(CF)(CF)Oc4cc(C(F)(F)F)ccc43)cccc21` [Example 146, 1-[(4R)-2,2-bis(fluoromethyl)-7-(trifluoromethyl)-3,4-dihydro-2H-chromen-4-yl]-3-(1-methyl-2-oxo-1,2,3,4-tetrahydroquinazolin-5-yl)urea], the IC50 on human TRPV1 [1] stood at 38 nM. The “human TRPV1 H^+ (max % remain)” value at human TRPV1 [2] was determined as 15%.

Turning to `CCC1(CC)C[C@@H](NC(=O)Nc2cccc3c2CNC(=O)N3C)c2ccc(Cl)c(Cl)c2O1` [Example 147, 1-[(4R)-7,8-dichloro-2,2-diethyl-3,4-dihydro-2H-chromen-4-yl]-3-(1-methyl-2-oxo-1,2,3,4-tetrahydroquinazolin-5-yl)urea], on human TRPV1 [1], the IC50 stood at 600 nM. For the same compound, the “human TRPV1 H^+ (max % remain)” value on human TRPV1 [2] turned out to be 15%.

Take `CN1C(=O)NCc2c(NC(=O)N[C@@H]3CC(CF)(CF)Oc4c(Cl)cccc43)cccc21` [Example 148, 1-[(4R)-8-chloro-2,2-bis(fluoromethyl)-3,4-dihydro-2H-chromen-4-yl]-3-(1-methyl-2-oxo-1,2,3,4-tetrahydroquinazolin-5-yl)urea]: the IC50 on human TRPV1 [1] stood at 100 nM. For the same compound, the “human TRPV1 H^+ (max % remain)” value at human TRPV1 [2] was found to be 33%.

In the case of `CN1C(=O)NCc2c(NC(=O)N[C@@H]3CC(CF)(CF)Oc4cc(OC(F)(F)F)ccc43)cccc21` [Example 149, 1-[(4R)-2,2-bis(fluoromethyl)-7-(trifluoromethoxy)-3,4-dihydro-2H-chromen-4-yl]-3-(1-methyl-2-oxo-1,2,3,4-tetrahydroquinazolin-5-yl)urea], the IC50 at human TRPV1 [1] worked out at 120 nM. The “human TRPV1 H^+ (max % remain)” value on human TRPV1 [2] came to 16%.

On to `CN1C(=O)NCc2c(NC(=O)N[C@@H]3CC(C)(C)Oc4cc(C(F)(F)F)ccc43)cccc21` [Example 150, 1-[(4R)-2,2-dimethyl-7-(trifluoromethyl)-3,4-dihydro-2H-chromen-4-yl]-3-(1-methyl-2-oxo-1,2,3,4-tetrahydroquinazolin-5-yl)urea], for which the IC50 on human TRPV1 [1] was 16 nM. In addition, the “human TRPV1 H^+ (max % remain)” value on human TRPV1 [2] came to 20%.

In the case of `CCCC1(CCC)C[C@@H](NC(=O)Nc2cccc3c2CNC(=O)N3C)c2cc(F)ccc2O1` [Example 151, 1-[(4R)-6-fluoro-2,2-dipropyl-3,4-dihydro-2H-chromen-4-yl]-3-(1-methyl-2-oxo-1,2,3,4-tetrahydroquinazolin-5-yl)urea], the IC50 on human TRPV1 [1] turned out to be 170 nM. In addition, the “human TRPV1 H^+ (max % remain)” value on human TRPV1 [2] is 53%.

Take `CN1C(=O)NCc2c(NC(=O)N[C@@H]3CC(CF)(CF)Oc4ccc(F)cc43)cccc21` [Example 152, 1-[(4R)-6-fluoro-2,2-bis(fluoromethyl)-3,4-dihydro-2H-chromen-4-yl]-3-(1-methyl-2-oxo-1,2,3,4-tetrahydroquinazolin-5-yl)urea]: the IC50 on human TRPV1 [1] is 470 nM. The “human TRPV1 H^+ (max % remain)” value on human TRPV1 [2] was found to be 22%.

On to `CN1C(=O)NCc2c(NC(=O)N[C@@H]3CC(CF)(CF)Oc4c(F)cc(F)cc43)cccc21` [Example 153, 1-[(4R)-6,8-difluoro-2,2-bis(fluoromethyl)-3,4-dihydro-2H-chromen-4-yl]-3-(1-methyl-2-oxo-1,2,3,4-tetrahydroquinazolin-5-yl)urea], for which the IC50 on human TRPV1 [1] was 170 nM. For the same compound, the “human TRPV1 H^+ (max % remain)” value on human TRPV1 [2] was found to be 23%.

For the compound `CN1C(=O)NCc2c(NC(=O)N[C@@H]3CC4(CCC4)Oc4ccc(F)cc43)cccc21` [Example 154, 1-[(4R)-6-fluoro-3,4-dihydrospiro[chromene-2,1′-cyclobutan]-4-yl]-3-(1-methyl-2-oxo-1,2,3,4-tetrahydroquinazolin-5-yl)urea], at human TRPV1 [1], the half-maximal inhibitory concentration (IC50) was found to be 15 nM. Moreover, on human TRPV1 [2], the “human TRPV1 H^+ (max % remain)” value worked out at 20%.

Consider `CCC1(CC)C[C@@H](NC(=O)Nc2cccc3c2CNC(=O)N3C)c2cc(F)ccc2O1` [Example 155, 1-[(4R)-2,2-diethyl-6-fluoro-3,4-dihydro-2H-chromen-4-yl]-3-(1-methyl-2-oxo-1,2,3,4-tetrahydroquinazolin-5-yl)urea], for which the IC50 on human TRPV1 [1] amounted to 16 nM. Besides, the “human TRPV1 H^+ (max % remain)” value on human TRPV1 [2] is reported as 20%.

On to `CCCC1(CCC)C[C@@H](NC(=O)Nc2cccc3c2CNC(=O)N3C)c2cccc(F)c2O1` [Example 156, 1-[(4R)-8-fluoro-2,2-dipropyl-3,4-dihydro-2H-chromen-4-yl]-3-(1-methyl-2-oxo-1,2,3,4-tetrahydroquinazolin-5-yl)urea], for which the IC50 at human TRPV1 [1] was 190 nM. The “human TRPV1 H^+ (max % remain)” value at human TRPV1 [2] came out at 67%.

As to `CN1C(=O)NCc2c(NC(=O)N[C@@H]3CC(C)(C)Oc4ccc(F)cc43)cccc21` [Example 157, 1-[(4R)-6-fluoro-2,2-dimethyl-3,4-dihydro-2H-chromen-4-yl]-3-(1-methyl-2-oxo-1,2,3,4-tetrahydroquinazolin-5-yl)urea], on human TRPV1 [1], the IC50 was determined as 47 nM. For the same compound, on human TRPV1 [2], the “human TRPV1 H^+ (max % remain)” value is given as 36%.
